In article PMC11010885, “Functional Analysis and Tissue-Specific Expression of Calcitonin and CGRP with RAMP-Modulated Receptors CTR and CLR in Chickens” (Animals : an Open Access Journal from MDPI, 2024):
Entries after “also recorded” stand apart in the source; their conditions may differ.

Columns and labels:
Type in all cases: cell-based
[1] = system: chicken CLR + RAMP3; assay: MAPK/ERK pGL4-SRE-luciferase reporter assay, CLR + RAMP3 in CHO cells; details: 10^−12 M to 10^−6 M, 6 h, mean ± SEM, n = 3, read-out: EC50, MAPK/ERK signaling pathway
Description: (§1) Chinese hamster ovary (CHO) cells were cultured in Dulbecco’s modified Eagle’s medium (DMEM) supplemented with 10% (vol/vol) fetal bovine serum (HyClone, Logan, UT, USA), 100 U/mL penicillin G and 100 μg/mL streptomycin. The cells were maintained in a 90 mm culture dish (Nunc, Rochester, NY, USA) and incubated at 37 °C with 5% CO2. To investigate the signaling pathways associated with each receptor in CHO cells, three different reporter systems (pGL3-CRE-luciferase, pGL4-SRE-luciferase, and pGL3-NFAT-RE-luciferase) were utilized to monitor intracellular cAMP/PKA and MAPK/ERK signaling pathways and calcium mobilization of the activated receptors, respectively.
(§2) Prior to the transfection procedure, the cells were initially cultured in 6-well plates (Nunc, Rochester, NY, USA), maintaining a seeding density of approximately 300,000 cells per well. Upon achieving approximately 70% confluence, the cells underwent a co-transfection process. […] The fluorescence activity of the luciferase in each treatment group was measured using a multimode microplate reader (TriStar LB941, Berthold Technologies, Bad Wildbad, Germany). Finally, the fluorescence activity of each treatment group was expressed as a relative increase ratio compared to the control group.

[2] = system: chicken CTR + RAMPs; assay: Western blot CREB phosphorylation, CTR + RAMPs in CHO cells; details: 10 nM, 10 min, n = 3
Description: (§3) To assess whether the activation of chicken CTR and CLR, along with the presence of RAMPs, can augment the phosphorylation levels of cAMP response element-binding protein (CREB), 200 ng of CTR or CLR expression plasmids were combined with 1000 ng of chicken RAMPs or an empty pcDNA3.1 (+) vector in a 100 μL buffer. The resulting mixture was then transfected into CHO cells in a 12-well plate (Nunc, Rochester, NY, USA) using 3.6 μL of PEI MAX transfection reagent. After a 24 h incubation period, the cells were exposed to chicken CT (10 nM) or CGRP (10 nM) for 10 min. Subsequently, the culture medium was removed, and the cells were lysed according to the manufacturer’s instructions. Western blot analysis was performed to quantify the levels of CREB and phosphorylated CREB (p-CREB). The optical densities were analyzed and normalized using the software, ImageJ 1.52a (National Institutes of Health, Bethesda, MD, USA). The relative expression of p-CREB/CREB was determined by calculating the ratio of the optical density to that of the control without peptide treatment (0 min).

[3] = system: chicken CTR + RAMP3; assay: cAMP/PKA pGL3-CRE-luciferase reporter assay, CTR + RAMP3 in CHO cells; details: 10^−12 M to 10^−6 M, 6 h, mean ± SEM, n = 3, read-out: EC50, cAMP/PKA signaling pathway
Description: as §1, §2

[4] = system: chicken CLR + RAMP1; assay: MAPK/ERK pGL4-SRE-luciferase reporter assay, CLR + RAMP1 in CHO cells; details: 10^−12 M to 10^−6 M, 6 h, mean ± SEM, n = 3, read-out: EC50, MAPK/ERK signaling pathway
Description: as §1, §2

[5] = system: chicken CLR; assay: cAMP/PKA pGL3-CRE-luciferase reporter assay, CLR + pcDNA in CHO cells
Description: as §1
(§4) Prior to the transfection procedure, the cells were initially cultured in 6-well plates (Nunc, Rochester, NY, USA), maintaining a seeding density of approximately 300,000 cells per well. Upon achieving approximately 70% confluence, the cells underwent a co-transfection process. This procedure entailed the introduction of 700 ng of various luciferase reporter constructs (namely, pGL3-CRE-luciferase, pGL4-SRE-luciferase, or pGL3-NFAT-RE-luciferase) combined with 200 ng of a specific receptor plasmid (CTR or CLR) and 1000 ng of either RAMP1, RAMP2, RAMP3 expression plasmids, or alternatively, the empty pcDNA3.1 (+) vector. A volume of 5.7 μL of PEI MAX was used in 200 μL of buffer following the manufacturer’s protocol. After 24 h of incubation, the transfected CHO cells were subcultured in 96-well plates and passaged for an additional 24 h before peptide treatment. Then, the medium from the 96-well plates was removed, and the cells were treated with chicken CT/CGRP-containing medium (or untreated medium as a control) at concentrations ranging from 10^−12 M to 10^−6 M for 6 h. Subsequently, the cells were harvested for luciferase assays by lysing them in 1 × passive lysis buffer. To measure the luciferase activity of the cell lysate, 40 μL of luciferase assay reagent (Promega, Madison, WI, USA) was mixed with the cell lysate following the manufacturer’s instructions. The fluorescence activity of the luciferase in each treatment group was measured using a multimode microplate reader (TriStar LB941, Berthold Technologies, Bad Wildbad, Germany). Finally, the fluorescence activity of each treatment group was expressed as a relative increase ratio compared to the control group.

[6] = system: chicken CTR; assay: MAPK/ERK pGL4-SRE-luciferase reporter assay, CTR + pcDNA in CHO cells; details: 10^−12 M to 10^−6 M, 6 h, mean ± SEM, n = 3, read-out: EC50, MAPK/ERK signaling pathway
Description: as §1, §2

[7] = system: chicken CLR + RAMP1; assay: Western blot CREB phosphorylation, CLR + RAMP1 in CHO cells; details: 10 nM, 10 min, n = 3
Description: as §3

[8] = system: chicken CTR + RAMP1; assay: MAPK/ERK pGL4-SRE-luciferase reporter assay, CTR + RAMP1 in CHO cells; details: 10^−12 M to 10^−6 M, 6 h, mean ± SEM, n = 3, read-out: EC50, MAPK/ERK signaling pathway
Description: as §1, §2

[9] = system: chicken CTR + RAMP2; assay: MAPK/ERK pGL4-SRE-luciferase reporter assay, CTR + RAMP2 in CHO cells; details: 10^−12 M to 10^−6 M, 6 h, mean ± SEM, n = 3, read-out: EC50, MAPK/ERK signaling pathway
Description: as §1, §2

[10] = system: chicken CLR + RAMP2; assay: cAMP/PKA pGL3-CRE-luciferase reporter assay, CLR + RAMP2 in CHO cells; details: 10^−12 M to 10^−6 M, 6 h, mean ± SEM, n = 3, read-out: EC50, cAMP/PKA signaling pathway
Description: as §1, §2

[11] = system: chicken CTR; assay: Western blot CREB phosphorylation, CTR in CHO cells; details: 10 nM, 10 min, n = 3
Description: as §3

[12] = system: chicken CLR; assay: MAPK/ERK pGL4-SRE-luciferase reporter assay, CLR + pcDNA in CHO cells; details: 10^−12 M to 10^−6 M, 6 h, mean ± SEM, n = 3, read-out: EC50, MAPK/ERK signaling pathway
Description: as §1, §2

[13] = system: chicken CLR + RAMP1; assay: Calcium pGL3-NFAT-RE-luciferase reporter assay, CLR + RAMP1 in CHO cells; details: 10^−12 M to 10^−6 M, 6 h, mean ± SEM, n = 3, read-out: EC50, calcium signaling pathway
Description: as §1, §2

[14] = system: chicken CLR + RAMP3; assay: Calcium pGL3-NFAT-RE-luciferase reporter assay, CLR + RAMP3 in CHO cells; details: 10^−12 M to 10^−6 M, 6 h, mean ± SEM, n = 3, read-out: EC50, calcium signaling pathway
Description: as §1, §2

[15] = system: chicken CLR in the absence or presence of RAMPs; assay: cAMP/PKA pGL3-CRE-luciferase reporter assay, CLR without and with RAMPs compared
Description: as §1, §4

[16] = system: chicken CTR + RAMP3; assay: Calcium pGL3-NFAT-RE-luciferase reporter assay, CTR + RAMP3 in CHO cells; details: 10^−12 M to 10^−6 M, 6 h, mean ± SEM, n = 3, read-out: EC50, calcium signaling pathway
Description: as §1, §2

In the case of calcitonin gene-related peptide [CGRP], the EC50 [1] is reported as 4.31 ± 1.73 nM, the “CREB phosphorylation (p-CREB/CREB vs. control, 0 min)” value [2] is reported as “significantly increased the CREB phosphorylation” and the EC50 [3] is reported as 0.24 ± 0.07 nM. For the same substance, the EC50 [4] was 0.66 ± 0.11 nM, the EC50 ([5]; CLR + pcDNA, CHO cells, pGL3-CRE-luciferase, 10^−12 M to 10^−6 M, 6 h, mean ± SEM, n = 3, read-out: EC50, cAMP/PKA signaling pathway) was > 100 nM and the “activation (cAMP production), in words” value ([5]; independent CLR) was “no effect on CLR”. For the same substance, the EC50 [6] was 6.73 ± 1.78 nM, the “CREB phosphorylation (p-CREB/CREB vs. control, 0 min)” value [7] was “significantly enhanced the CREB phosphorylation” and the EC50 [8] was 0.41 ± 0.08 nM. The EC50 [9] was 10.4 ± 1.12 nM, the EC50 [10] was 40.9 ± 6.76 nM and the “CREB phosphorylation (p-CREB/CREB vs. control, 0 min)” value [11] was “significantly increased the CREB phosphorylation”. The EC50 [12] was > 100 nM, the EC50 [13] was 0.15 ± 0.11 nM and the EC50 [14] was > 100 nM. For the same substance, the “effect of RAMP co-expression on sensitivity of CLR” value ([15]; CHO cells, pGL3-CRE-luciferase) was “a significant increase in CLR’s sensitivity to CGRP with RAMP1 and RAMP3 co-expression; also recorded: RAMP2 co-expression led to a limited enhancement in sensitivity”, the “rank order of receptor sensitivity” value ([15]; CLR without/with RAMPs) was “CLR + RAMP1 > CLR + RAMP3 >> CLR + RAMP2 >> CLR” and the EC50 [16] was > 100 nM.
